From patent US8952024B2, “Herbicidal pyrimidone derivatives” (E I du Pont de Nemours and Company, priority 2009, dated 2015)

Tests used:
Format in all cases: in vivo
[1] = test system: giant foxtail (Setaria faberii); assay: Test A pre-/postemergence plant response
Source text: (§1) Seeds of barnyardgrass (Echinochloa crus-galli), large crabgrass (Digitaria sanguinalis), giant foxtail (Setaria faberii), morningglory (Ipomoea spp.), pigweed (Amaranthus retroflexus), velvetleaf (Abutilon theophrasti), wheat (Triticum aestivum) and corn (Zea mays) were planted into a blend of loam soil and sand and treated preemergence with a directed soil spray using test chemicals formulated in a non-phytotoxic solvent mixture which included a surfactant. At the same time these species were also treated with postemergence applications of test compounds formulated in the same manner.
(§2) Plants ranged in height from two to ten cm and were in the one- to two-leaf stage for the postemergence treatment. Treated plants and untreated controls were maintained in a greenhouse for approximately ten days, after which time all treated plants were compared to untreated controls and visually evaluated for injury. Plant response ratings, summarized in Table A, are based on a 0 to 100 scale where 0 is no effect and 100 is complete control. A dash (-) response means no test result.

[2] = test system: corn (Zea mays); assay: Test A pre-/postemergence plant response
Source text: as §1, §2

[3] = test system: velvetleaf (Abutilon theophrasti); assay: Test A pre-/postemergence plant response
Source text: as §1, §2

[4] = test system: wheat (Triticum aestivum); assay: Test A pre-/postemergence plant response
Source text: as §1, §2

[5] = test system: barnyardgrass (Echinochloa crus-galli); assay: Test A pre-/postemergence plant response
Source text: as §1, §2

[6] = test system: large crabgrass (Digitaria sanguinalis); assay: Test A pre-/postemergence plant response
Source text: as §1, §2

[7] = test system: pigweed (Amaranthus retroflexus); assay: Test A pre-/postemergence plant response
Source text: as §1, §2

[8] = test system: morningglory (Ipomoea spp.); assay: Test A pre-/postemergence plant response
Source text: as §1, §2

[9] = test system: ducksalad (Heteranthera limosa); assay: Test B flooded paddy test; settings: for Plant response rating, Flood, Ducksalad: 250 g ai/ha, flooded paddy test, visual rating on 0 to 100 scale (0 no effect, 100 complete control) after 13 to 15 days; for Plant response rating, Ducksalad: Flood (flooded paddy test), 13 to 15 days; for Ducksalad plant response rating: Flood, 31 g ai/ha, scale 0 to 100 (0 no effect, 100 complete control)
Source text: (§3) Plant species in the flooded paddy test consisted of rice (Oryza sativa), umbrella sedge (Cyperus difformis), ducksalad (Heteranthera limosa) and barnyardgrass (Echinochloa crus-galli) grown to the 2-leaf stage for testing. At the time of treatment, test pots were flooded with water to 3 cm above the soil surface, treated by application of test compounds directly to the paddy water, and then maintained at that water depth for the duration of the test.
(§4) Treated plants and controls were maintained in a greenhouse for 13 to 15 days, after which time all treated plants were visually evaluated and compared to controls. Plant response ratings, summarized in Table B, are based on a scale of 0 to 100 where 0 is no effect and 100 is complete control. A dash (-) response means no test result.

[10] = test system: rice (Oryza sativa); assay: Test B flooded paddy test; settings: for Plant response rating, Flood, Rice: 250 g ai/ha, flooded paddy test, visual rating on 0 to 100 scale (0 no effect, 100 complete control) after 13 to 15 days; for Plant response rating, Rice: Flood (flooded paddy test), 13 to 15 days; for Rice plant response rating: Flood, 31 g ai/ha, scale 0 to 100 (0 no effect, 100 complete control)
Source text: as §3, §4

[11] = test system: barnyardgrass (Echinochloa crus-galli); assay: Test B flooded paddy test; settings: for Plant response rating, Flood, Barnyardgrass: 250 g ai/ha, flooded paddy test, visual rating on 0 to 100 scale (0 no effect, 100 complete control) after 13 to 15 days; for Plant response rating, Barnyardgrass: Flood (flooded paddy test), 13 to 15 days; for Barnyardgrass plant response rating: Flood, 31 g ai/ha, scale 0 to 100 (0 no effect, 100 complete control)
Source text: as §3, §4

[12] = test system: umbrella sedge (Cyperus difformis); assay: Test B flooded paddy test; settings: for Plant response rating, Flood, Sedge, Umbrella: 250 g ai/ha, flooded paddy test, visual rating on 0 to 100 scale (0 no effect, 100 complete control) after 13 to 15 days; for Plant response rating, Sedge, Umbrella: Flood (flooded paddy test), 13 to 15 days; for Sedge, Umbrella plant response rating: Flood, 31 g ai/ha, scale 0 to 100 (0 no effect, 100 complete control)
Source text: as §3, §4

[13] = Postemergence, 125 g ai/ha, 0 to 100 scale where 0 is no effect and 100 is complete control
[14] = Postemergence, 500 g ai/ha, visual injury, 0 to 100 scale (0 no effect, 100 complete control), approx. ten days
[15] = Preemergence, 125 g ai/ha, 0 to 100 scale, 0 = no effect, 100 = complete control
[16] = Preemergence, 500 g ai/ha, 0 to 100 scale, 0 = no effect, 100 = complete control
[17] = 62 g ai/ha, scale of 0 to 100 where 0 is no effect and 100 is complete control
[18] = 125 g ai/ha, scale 0 to 100, 0 is no effect, 100 is complete control
[19] = Postemergence, 500 g ai/ha, 0 to 100 scale, 0 = no effect, 100 = complete control, approx. ten days
[20] = Preemergence, 500 g ai/ha, visual injury, 0 to 100 scale (0 no effect, 100 complete control), approx. ten days

C#Cc1ccc(-c2ncc(C(=O)C3=C(O)CCCC3=O)c(=O)n2C2CCCCC2)cc1 [Compound 216]
Plant response rating, Foxtail, Giant [1, 13]: 30
Foxtail, Giant plant response rating [1, 14]: 70
Plant response rating, Foxtail, Giant [1, 15]: 0
Plant response rating, Foxtail, Giant [1, 16]: 60
Plant response rating, Corn [2, 13]: 0
Corn plant response rating [2, 14]: 0
Plant response rating, Corn [2, 15]: 0
Plant response rating, Corn [2, 16]: 20
Plant response rating, Velvetleaf [3, 13]: 90
Velvetleaf plant response rating [3, 14]: 100
Plant response rating, Velvetleaf [3, 15]: 0
Plant response rating, Velvetleaf [3, 16]: 30
Plant response rating, Wheat [4, 13]: 20
Wheat plant response rating [4, 14]: 30
Plant response rating, Wheat [4, 15]: 0
Plant response rating, Wheat [4, 16]: 0
Plant response rating, Barnyardgrass [5, 13]: 10
Barnyardgrass plant response rating [5, 14]: 90
Plant response rating, Barnyardgrass [5, 15]: 0
Plant response rating, Barnyardgrass [5, 16]: 20
Plant response rating, Crabgrass, Large [6, 13]: 40
Crabgrass, Large plant response rating [6, 14]: 80
Plant response rating, Crabgrass, Large [6, 15]: 0
Plant response rating, Crabgrass, Large [6, 16]: 80
Plant response rating, Pigweed [7, 13]: 90
Pigweed plant response rating [7, 14]: 90
Plant response rating, Pigweed [7, 15]: 0
Plant response rating, Pigweed [7, 16]: 50
Plant response rating, Morningglory [8, 13]: 70
Morningglory plant response rating [8, 14]: 90
Plant response rating, Morningglory [8, 15]: 0
Plant response rating, Morningglory [8, 16]: 30
Plant response rating, Flood, Ducksalad [9]: 95
Plant response rating, Ducksalad [9, 17]: 90
Plant response rating, Ducksalad [9, 18]: 90
Ducksalad plant response rating [9]: 50
Plant response rating, Flood, Rice [10]: 0
Plant response rating, Rice [10, 17]: 0
Plant response rating, Rice [10, 18]: 0
Rice plant response rating [10]: 0
Plant response rating, Flood, Barnyardgrass [11]: 0
Plant response rating, Barnyardgrass [11, 17]: 0
Plant response rating, Barnyardgrass [11, 18]: 0
Barnyardgrass plant response rating [11]: 0
Plant response rating, Flood, Sedge, Umbrella [12]: 100
Plant response rating, Sedge, Umbrella [12, 17]: 65
Plant response rating, Sedge, Umbrella [12, 18]: 80
Sedge, Umbrella plant response rating [12]: 0

CCCn1c(-c2ccco2)ncc(C(=O)C2=C(O)CCCC2=O)c1=O [Compound 110]
Plant response rating, Foxtail, Giant [1, 13]: 10
Plant response rating, Foxtail, Giant [1, 19]: 50
Plant response rating, Foxtail, Giant [1, 15]: 0
Plant response rating, Foxtail, Giant [1, 20]: 10
Plant response rating, Corn [2, 13]: 0
Plant response rating, Corn [2, 19]: 10
Plant response rating, Corn [2, 15]: 0
Plant response rating, Corn [2, 20]: 0
Plant response rating, Velvetleaf [3, 13]: 90
Plant response rating, Velvetleaf [3, 19]: 100
Plant response rating, Velvetleaf [3, 15]: 60
Plant response rating, Velvetleaf [3, 20]: 70
Plant response rating, Wheat [4, 13]: 0
Plant response rating, Wheat [4, 19]: 0
Plant response rating, Wheat [4, 15]: 0
Plant response rating, Wheat [4, 20]: 0
Plant response rating, Barnyardgrass [5, 13]: 60
Plant response rating, Barnyardgrass [5, 19]: 90
Plant response rating, Barnyardgrass [5, 15]: 20
Plant response rating, Barnyardgrass [5, 20]: 60
Plant response rating, Crabgrass, Large [6, 13]: 80
Plant response rating, Crabgrass, Large [6, 19]: 90
Plant response rating, Crabgrass, Large [6, 15]: 40
Plant response rating, Crabgrass, Large [6, 20]: 80
Plant response rating, Pigweed [7, 13]: 90
Plant response rating, Pigweed [7, 19]: 100
Plant response rating, Pigweed [7, 15]: 80
Plant response rating, Pigweed [7, 20]: 90
Plant response rating, Morningglory [8, 13]: 90
Plant response rating, Morningglory [8, 19]: 100
Plant response rating, Morningglory [8, 15]: 40
Plant response rating, Morningglory [8, 20]: 70
Plant response rating, Flood, Ducksalad [9]: 75
Plant response rating, Ducksalad [9, 17]: 40
Plant response rating, Ducksalad [9, 18]: 75
Ducksalad plant response rating [9]: 0
Plant response rating, Flood, Rice [10]: 30
Plant response rating, Rice [10, 17]: 0
Plant response rating, Rice [10, 18]: 30
Rice plant response rating [10]: 0
Plant response rating, Flood, Barnyardgrass [11]: 40
Plant response rating, Barnyardgrass [11, 17]: 0
Plant response rating, Barnyardgrass [11, 18]: 20
Barnyardgrass plant response rating [11]: 0
Plant response rating, Flood, Sedge, Umbrella [12]: 75
Plant response rating, Sedge, Umbrella [12, 17]: 35
Plant response rating, Sedge, Umbrella [12, 18]: 50
Sedge, Umbrella plant response rating [12]: 30

CCCc1ncc(C(=O)C2=C(O)CCCC2=O)c(=O)n1Cc1cccc(OC)c1 [Compound 104]
Plant response rating, Foxtail, Giant [1, 13]: 0
Plant response rating, Foxtail, Giant [1, 19]: 0
Plant response rating, Foxtail, Giant [1, 15]: 0
Plant response rating, Foxtail, Giant [1, 20]: 0
Plant response rating, Corn [2, 13]: 0
Plant response rating, Corn [2, 19]: 0
Plant response rating, Corn [2, 15]: 0
Plant response rating, Corn [2, 20]: 0
Plant response rating, Velvetleaf [3, 13]: 70
Plant response rating, Velvetleaf [3, 19]: 80
Plant response rating, Velvetleaf [3, 15]: 0
Plant response rating, Velvetleaf [3, 20]: 40
Plant response rating, Wheat [4, 13]: 0
Plant response rating, Wheat [4, 19]: 0
Plant response rating, Wheat [4, 15]: 0
Plant response rating, Wheat [4, 20]: 0
Plant response rating, Barnyardgrass [5, 13]: 10
Plant response rating, Barnyardgrass [5, 19]: 40
Plant response rating, Barnyardgrass [5, 15]: 0
Plant response rating, Barnyardgrass [5, 20]: 0
Plant response rating, Crabgrass, Large [6, 13]: 0
Plant response rating, Crabgrass, Large [6, 19]: 0
Plant response rating, Crabgrass, Large [6, 15]: 0
Plant response rating, Crabgrass, Large [6, 20]: 0
Plant response rating, Pigweed [7, 13]: 100
Plant response rating, Pigweed [7, 19]: 100
Plant response rating, Pigweed [7, 15]: 80
Plant response rating, Pigweed [7, 20]: 90
Plant response rating, Morningglory [8, 13]: 70
Plant response rating, Morningglory [8, 19]: 100
Plant response rating, Morningglory [8, 15]: 0
Plant response rating, Morningglory [8, 20]: 0
Plant response rating, Flood, Ducksalad [9]: 0
Plant response rating, Ducksalad [9, 17]: 0
Plant response rating, Ducksalad [9, 18]: 0
Ducksalad plant response rating [9]: 0
Plant response rating, Flood, Rice [10]: 0
Plant response rating, Rice [10, 17]: 0
Plant response rating, Rice [10, 18]: 0
Rice plant response rating [10]: 0
Plant response rating, Flood, Barnyardgrass [11]: 0
Plant response rating, Barnyardgrass [11, 17]: 0
Plant response rating, Barnyardgrass [11, 18]: 0
Barnyardgrass plant response rating [11]: 0
Plant response rating, Flood, Sedge, Umbrella [12]: 0
Plant response rating, Sedge, Umbrella [12, 17]: 0
Plant response rating, Sedge, Umbrella [12, 18]: 0
Sedge, Umbrella plant response rating [12]: 0

CCCCn1c(-c2cccc(C)c2)ncc(C(=O)C2=C(O)CCCC2=O)c1=O [Compound 116]
Plant response rating, Foxtail, Giant [1, 13]: 60
Plant response rating, Foxtail, Giant [1, 19]: 90
Plant response rating, Foxtail, Giant [1, 15]: 10
Plant response rating, Foxtail, Giant [1, 20]: 60
Plant response rating, Corn [2, 13]: 0
Plant response rating, Corn [2, 19]: 10
Plant response rating, Corn [2, 15]: 0
Plant response rating, Corn [2, 20]: 0
Plant response rating, Velvetleaf [3, 13]: 70
Plant response rating, Velvetleaf [3, 19]: 100
Plant response rating, Velvetleaf [3, 15]: 30
Plant response rating, Velvetleaf [3, 20]: 60
Plant response rating, Wheat [4, 13]: 0
Plant response rating, Wheat [4, 19]: 0
Plant response rating, Wheat [4, 15]: 0
Plant response rating, Wheat [4, 20]: 0
Plant response rating, Barnyardgrass [5, 13]: 80
Plant response rating, Barnyardgrass [5, 19]: 100
Plant response rating, Barnyardgrass [5, 15]: 10
Plant response rating, Barnyardgrass [5, 20]: 70
Plant response rating, Crabgrass, Large [6, 13]: 60
Plant response rating, Crabgrass, Large [6, 19]: 80
Plant response rating, Crabgrass, Large [6, 15]: 30
Plant response rating, Crabgrass, Large [6, 20]: 70
Plant response rating, Pigweed [7, 13]: 100
Plant response rating, Pigweed [7, 19]: 100
Plant response rating, Pigweed [7, 15]: 60
Plant response rating, Pigweed [7, 20]: 100
Plant response rating, Morningglory [8, 13]: 100
Plant response rating, Morningglory [8, 19]: 100
Plant response rating, Morningglory [8, 15]: 0
Plant response rating, Morningglory [8, 20]: 40
Plant response rating, Flood, Ducksalad [9]: 85
Plant response rating, Ducksalad [9, 17]: 80
Plant response rating, Flood, Rice [10]: 0
Plant response rating, Rice [10, 17]: 0
Plant response rating, Flood, Barnyardgrass [11]: 75
Plant response rating, Barnyardgrass [11, 17]: 65
Plant response rating, Flood, Sedge, Umbrella [12]: 90
Plant response rating, Sedge, Umbrella [12, 17]: 75
